The test system of data set [1] is cytochrome P450 (CYP450) enzyme system. As to conditions: cited from earlier work.
The conditions of data set [2]: rat, in vivo, po; cited from earlier work.
Data set [3] in a line: Pharmacokinetic study of CdG in rats after i.v. and p.o. administration. The format is in vivo, Male Sprague-Dawley rats. Conditions: 1 mg/kg; for half-life: t1/2, rats.
Data set [4] is described as follows: Pharmacokinetic study of CdG and ETV oral co-administration in rats. Conditions: male, Sprague-Dawley, rat, plasma, 1 mg/kg. The format is in vivo.
The nature of data set [5]: Tissue distribution of CdG to liver and kidney in rats. The class given is in vivo, Male Sprague-Dawley rats. As to conditions: 9 h after i.v. or p.o. 1 mg/kg.
A short description of data set [6]: Urinary excretion of CdG in rats. Conditions: for amount of unchanged CdG accumulated in urine: 9 h after administration. The class given is in vivo, Male Sprague-Dawley rats.
A short description of data set [7]: Protein binding by ultrafiltration, human plasma. The format is in vitro ADME. Conditions: pooled human plasma.
The target of data set [8] is human serum albumin (HSA) (Homo sapiens, UniProt P02768). The experiment in a line: Protein binding by ultrafiltration, HSA. The class given is in vitro ADME. As to conditions: 600 μM HSA, CdG 500 ng/ml.
Data set [9] deals with human α1 acidic glycoprotein (AGP). The experiment in a line: Protein binding by ultrafiltration, AGP. The class given is in vitro ADME. Conditions: 45 μM AGP, CdG 500 ng/ml.
In data set [10] the test system is cytochrome P450 (CYP450) enzyme system. Briefly: Metabolism by CYP450. The format is in vitro ADME. Conditions: data not shown.
Data set [11] concerns wild-type HBV. As to conditions: read-out: half-maximal inhibitory concentration (IC50); cited from earlier work.
For data set [12] the following is noted: 2 days after administration; another study of the authors, ref not given; cited from earlier work.
Data set [13] concerns wild-type HBV. Conditions: oral 0.02 mg/kg/day, hu-liver-chimeric mice; cited from earlier work.
A further data set relates to ETV-resistant HBV. As to conditions: oral 0.02 mg/kg/day, hu-liver-chimeric mice; cited from earlier work.
Where [14] appears, read: male, Sprague-Dawley, rat, plasma, iv.
[15] abbreviates: male, Sprague-Dawley, rat, plasma, po.

We go through three compounds from PMC8054307 (The Journal of pharmacy and pharmacology, 2018).

What is called AUC is concentration integrated over time. A lower AUC goes with less exposure. One may read the MRT as the average time that molecules of a dose stay in the body. Broadly, the half-life is the time in which the quantity being followed falls by half. A high value points to slow loss. As a reminder, the CL/F is clearance divided by bioavailability, as obtained after extravascular dosing. The Cmax is the peak of the concentration-time curve. What is called Tmax is the time from dosing to the highest level. Broadly, the fraction unbound is the share of the substance not bound to proteins or other matrix. A higher fraction unbound goes with weak binding.

“Also recorded” adds a separate entry of the source.

Chain of human serum albumin (HSA) (P02768 25-609): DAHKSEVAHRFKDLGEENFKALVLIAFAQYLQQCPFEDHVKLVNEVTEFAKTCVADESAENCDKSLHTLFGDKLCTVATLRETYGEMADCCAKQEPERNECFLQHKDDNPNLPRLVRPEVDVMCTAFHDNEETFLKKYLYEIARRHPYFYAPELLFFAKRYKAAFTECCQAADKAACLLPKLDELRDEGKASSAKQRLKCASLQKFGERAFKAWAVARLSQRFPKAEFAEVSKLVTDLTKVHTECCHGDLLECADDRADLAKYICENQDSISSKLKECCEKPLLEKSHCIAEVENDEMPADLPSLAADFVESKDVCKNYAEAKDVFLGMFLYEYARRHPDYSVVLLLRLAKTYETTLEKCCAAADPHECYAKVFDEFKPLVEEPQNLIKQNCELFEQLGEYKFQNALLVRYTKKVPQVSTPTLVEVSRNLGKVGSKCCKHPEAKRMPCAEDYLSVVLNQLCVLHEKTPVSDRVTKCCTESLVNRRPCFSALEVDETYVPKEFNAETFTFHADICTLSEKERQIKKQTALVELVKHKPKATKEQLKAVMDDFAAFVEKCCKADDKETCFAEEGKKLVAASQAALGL

Regarding `C=C1[C@H](CO)[C@@H](O)C[C@@H]1n1cnc2c(=O)[nH]c(N)nc21` [ETV, entecavir], the “substrate for the CYP450 enzyme system” value in data set [1] is on record as “not a substrate”. Besides, the bioavailability entry in data set [2] is reported as “approximately 78%”.

In the case of `N#C[C@]1(CO)O[C@@H](n2cnc3c(=O)[nH]c(N)nc32)C[C@@H]1O` [CdG, 4′-cyano-2′-deoxyguanosine], in [3] (setting [14]), the AUC came out at 123 ± 28.1 ng·h/mL, the MRT came to 29.4 ± 3.6 min, the Vd was 4.08 ± 0.62 L/kg and the clearance was 141 mL/min/kg. Also, the half-life in [3] (setting [14]) came out at 30 min. In data set [3] (setting [15]), the AUC stood at 90.1 ± 5.75 ng·h/mL, the apparent clearance CL/F is 185 mL/min/kg, the concentration peaked (Cmax) at 53.8 ± 8.63 ng/mL and the MRT was 82.8 ± 7.2 min. Besides, the Tmax in data set [3] (setting [15]) was found to be 45 min. Moreover, in data set [3] (male, Sprague-Dawley, rat, plasma, po, CdG alone), the half-life is 42 min. In data set [3] (rats, i.v. and p.o.), the “time to reach undetectable plasma levels after administration” value is listed as no more than 9 h. The t1/2 in [3] (rats, p.o., CdG alone) amounted to 43.8 ± 7.2 min. For the same compound, the Tmax in data set [4] is 45 min. In [5], the “distribution to liver vs kidney” value was “higher levels of CdG were distributed to the liver than the kidney; also recorded: distributed to the liver rather than kidney”. The “form excreted into the urine” value in data set [6] (LC/MS chromatographic profile of urine) is reported as “unchanged form”. Moreover, the “urinary excretion, % of the given dose” value in data set [6] (i.v. 1 mg/kg, 9 h) turned out to be 45%. Further, the “amount of unchanged CdG accumulated in urine” value in [6] (i.v. 1 mg/kg) is reported as “about 113 μg”. Besides, in data set [6] (p.o. 1 mg/kg), the “amount of unchanged CdG accumulated in urine” value was roughly 49 µg. In addition, the fraction unbound at 500 ng/ml in data set [7] was roughly 0.393. Further, the “binding rate to HSA” value in data set [8] was “about 11.6 ± 0.01%”. Further, the “binding rate to AGP” value in [9] is listed as “about 13.5 ± 0.01%”. Moreover, in data set [10], the “metabolism by CYP450” value is recorded as “rarely metabolized by CYP450”. The IC50 in the data set with wild-type HBV [11] is 0.4 nM. Also, the “amount accumulated in the urine, % of the given dose” value in data set [12] is “about 40%”. The “replication of wild-type HBV” value with wild-type HBV [13] is recorded as “significantly blocked”. The “replication of ETV-resistant HBV” value with ETV-resistant HBV was “significantly blocked”.

Consider `CC(C)(C)C(=O)OCOP(=O)(COCCn1cnc2c(N)ncnc21)OCOC(=O)C(C)(C)C` [adefovir dipivoxil], for which the bioavailability result in [2] is recorded as “approximately 50%”.
